According to patent US20100173910A1, “TRIAMINOPYRIMIDINE CYCLOBUTENEDIONE DERIVATIVES USED AS PHOSPHATASE CDC25 INHIBITORS” (IPDRN PHSTMS D.S.S., priority 2007, published 2010):

What was measured:
[1] = biological target: T1, purified recombinant CDC25C enzyme (MBP-CDC25C protein) (Homo sapiens, UniProt P30307); assay: Phosphatase activity of the purified recombinant CDC25C enzyme (OMFP dephosphorylation, fluorescence); format: biochemical; details: OMFP 500 μM, 4 hours at 30° C., three independent experiments; nested upper bounds; read-out: IC50 for the phosphatase activity of the purified recombinant CDC25-C enzyme
T1 construct: made in house
T1 sequence (P30307 1-473): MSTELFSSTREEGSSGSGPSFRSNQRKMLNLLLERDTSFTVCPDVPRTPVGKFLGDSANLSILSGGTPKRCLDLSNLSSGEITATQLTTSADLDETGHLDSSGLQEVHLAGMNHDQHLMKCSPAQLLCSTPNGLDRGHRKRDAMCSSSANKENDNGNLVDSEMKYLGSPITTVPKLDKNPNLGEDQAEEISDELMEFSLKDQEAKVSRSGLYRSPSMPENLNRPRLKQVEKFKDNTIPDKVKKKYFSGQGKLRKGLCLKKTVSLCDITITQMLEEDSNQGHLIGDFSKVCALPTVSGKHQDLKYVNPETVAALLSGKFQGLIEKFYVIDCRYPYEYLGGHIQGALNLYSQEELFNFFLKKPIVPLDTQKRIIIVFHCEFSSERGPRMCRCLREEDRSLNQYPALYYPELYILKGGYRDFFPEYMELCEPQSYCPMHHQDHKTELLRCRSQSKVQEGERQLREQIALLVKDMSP
Experimental: i) Determination of the Phosphatase Activity of the Purified Recombinant CDC25C Enzyme:
The phosphatase activity of the MBP-CDC25C protein is evaluated through its dephosphorylation of 3-O-methylfluorescein-phosphate (OMFP) to form 3-O-methylfluorescein (OMF), determining the fluorescence of the reaction product at 475 nm. This assay can be used to identify inhibitors of the recombinant CDC25 enzyme. The preparation of the MBP-CDC25C fusion protein is described in the PCT patent application published under the number WO 01/44467.
The reaction is performed in 384-well plates in a final volume of 50 μl. The MBP-CDC25C protein (prepared as described hereinabove) is stored in the following elution buffer: 20 mM Tris-HCl pH 7.4; 250 mM NaCl; 1 mM EDTA; 1 mM dithiothreitol (DTT); 10 mM maltose. It is diluted to a concentration of 60 μM in the following reaction buffer: 50 mM Tris-HCl pH 8.2; 50 mM NaCl; 1 mM DTT; 20% glycerol. The background noise is determined using with the buffer without adding the enzyme. The products are tested at decreasing concentrations from 40 μM. The reaction is initiated by the addition of OMFP solution to a final concentration of 500 μM (prepared immediately before use from a 12.5 mM stock solution in 100% DMSO (Sigma #M2629)). After 4 hours at 30° C. in a disposable 384-well plate, the fluorescence measured at OD 475 nm is read on a Victor^2 plate reader (EGG-Wallac). The concentration that produces 50% inhibition of the enzyme reaction is calculated from three independent experiments. Only the values that fall within the linear part of the sigmoid curve are used for the linear regression analysis.

[2] = tested on: MIA PaCa-2 (human pancreatic carcinoma cells); assay: Anti-proliferative activity, MIA PaCa-2 cells (WST1 colorimetric test); format: cell-based; details: MIA PaCa-2, 96 h, 96 hours treatment, up to 10 μM, nested upper bounds, read-out: IC50 for proliferation of the MIA PaCa-2 cell lines
Experimental: (§1) ii) Characterisation of Anti-Proliferative Activity:
(§2) By way of an example, the effect of treating two human cell lines MIA PaCa-2 and DU 145 with the compounds of the examples described hereinbefore will be studied. The cell lines DU 145 (human prostate carcinoma cells) and MIA PaCa-2 (human pancreatic carcinoma cells) were obtained from the American Tissue Culture Collection (Rockville, Md., USA). A 96-well plate was inoculated on day 0 with cells in 80 μl of Dulbecco's modified Eagle's medium (Gibco-Brl, Cergy-Pontoise, France) with 10% heat-inactivated foetal calf serum (Gibco-Brl, Cergy-Pontoise, France), 50,000 units/l of penicillin and 50 mg/l of streptomycin (Gibco-Brl, Cergy-Pontoise, France) and 2 mM of glutamine (Gibco-Brl, Cergy-Pontoise, France). The cells were treated on day 1 for 96 hours with increasing concentrations of each test compound up to 10 μM. At the end of this period, cell proliferation is quantified by means of a colorimetric test based on cleavage of the tetrazolium salt WST1 by the mitochondrial dehydrogenases in the viable cells, resulting in formation of formazan (Boehringer Mannheim, Meylan, France). These tests are performed in duplicate with 8 determinations per concentration tested. For each test compound, the values within the linear part of the sigmoid curve were subjected to linear regression analysis and used to estimate the IC50 inhibitory concentration. The products are solubilised in dimethylsulfoxide (DMSO) at a concentration of 10^−2 M and used in culture with a final DMSO concentration of 0.1%.

[3] = tested on: DU 145 (human prostate carcinoma cells); assay: Anti-proliferative activity, DU 145 cells (WST1 colorimetric test); format: cell-based; details: DU-145, 96 h, 96 hours treatment, up to 10 μM, nested upper bounds, read-out: IC50 for proliferation of the DU 145 cell lines
Experimental: as §1, §2

| SMILES | IC50 [1] | IC50 [2] | IC50 [3] | melting point |
| --- | --- | --- | --- | --- |
| O=c1c(NCCNc2cc(N3CCCC3)nc(N3CCCC3)n2)c(Nc2ccc(F)cc2)c1=O [Example 31, 3-({2-[(2,6-dipyrrolidin-1-ylpyrimidin-4-yl)amino]ethyl}amino)-4-[(4-fluorophenyl)amino]cyclobut-3-ene-1,2-dione] | ≤ 1 µM | ≤ 10 µM | ≤ 10 µM | 241 to 243 °C |
| N#Cc1ccc(Nc2c(NCCNc3cc(N4CCCC4)nc(N4CCCC4)n3)c(=O)c2=O)cc1 [Example 33, 3-({2-[(2,6-dipyrrolidin-1-ylpyrimidin-4-yl)amino]ethyl}amino)-4-[(4-cyanophenyl)amino]cyclobut-3-ene-1,2-dione] | ≤ 1 µM | ≤ 10 µM | ≤ 10 µM | > 250 °C |
